We go through 1 molecule from patent US12351561B2, “Crystalline (2S,4R)-5-(5'-chloro-2'-fluoro-[1,1'-biphenyl]-4-yl)-2-(ethoxymethyl)-4-(3-hydroxyisoxazole-5-carboxamido)-2-methylpentanoic acid and uses thereof” (THERAVANCE BIOPHARMA R&D IP, LLC, priority 2016, dated 2025).

SMILES strings stand for the structures. Like-named read-outs stand apart in the source and are kept apart here.

Data set [1] has as its target T1, NEP (Homo sapiens, UniProt P08473).
T1 construct: from tissue; host or cells: healthy human volunteers (in vivo)
Description: Assay 3.1: NEP activity in human (cGMP), single-ascending dose study. The format is in vivo. As for the experimental part:
A Phase 1 single-ascending dose (SAD) clinical trial of Compound I′ (Form I), which converts to or dissolves to provide its soluble form Compound I in the body, was conducted in order to assess neprilysin inhibition for the treatment of a range of cardiovascular and renal diseases, including, e.g., chronic kidney disease, diabetic nephropathy, acute and chronic heart failure, heart failure with reduced ejection fraction, heart failure with preserved ejection fraction, post-myocardial infarction asymptomatic left ventricular dysfunction (post-MI asymptomatic LVD), subacute heart failure and resistant and isolated systolic hypertension. Safety and tolerability, pharmacokinetic (support for QD/BID dosing and non-renal excretion), pharmacodynamic (test for target engagement biomarkers cGMP and ANP), food effect, and absolute oral bioavailability and renal elimination using a ^14C intravenous microtracer, inter alia, were tested.
The Phase 1 study was a double-blind, randomized placebo-controlled single ascending dose study in healthy male and female volunteers randomized in a 4:1 ratio. The study enrolled 56 healthy volunteers over multiple weeks for the ascending-dose portion, which included cohorts (n=10/cohort of 8 active and 2 placebo) administered single ascending doses of 50 mg, 100 mg, 200 mg, 400 mg and 600 mg. A sixth cohort (n=6) was administered i.v. microtracer and oral doses of 10 μg and 100 mg, respectively.
One goal of this study was to determine the mechanism/duration of action of Compound I after dosing in humans.

A short description of data set [2]: Assay 1: IV/PO pharmacokinetic study in monkeys. Format: in vivo, male cynomolgus monkeys. The settings on record: for bioavailability / AUC(0-t): cynomolgus monkey, plasma; for AUC(0-t): read-out: AUClast Mean; for CLlast Mean: monkey. On the procedure:
A monkey PK study was performed with an appropriate mass of Compound I in volume of vehicle (e.g., 5% sodium bicarbonate, 5% dextrose in H2O, pH 7.4, for oral and IV and filtered through a […] PDVF syringe for IV) such that the final concentration was dosed at 1.0 mg/mL for both IV and PO.
Intravenous doses of Compound I were administered through an indwelling catheter in the cephalic vein followed by a saline flush of approximately 3 mL. Intravenous doses were administered at a volume of 1 mL/kg. Oral doses were delivered into the stomach using a syringe and gavage tube followed by a water flush of approximately 10 mL. Oral doses were administered at a volume of 2 mL/kg. Blood samples were collected from each animal at each time point (pre-dose, 0.083 h, 0.25 h, 0.5 h, 1 h, 2 h, 4 h, 6 h, 8 h, 12 h, and 24 h) via the cephalic, femoral, or sphenous vein through […]. All samples were collected into K2EDTA tubes and placed on ice. Samples were processed to plasma by centrifugation (3200 rpm, 10 minutes, 5° C.), and acidified with a final concentration of 2% acetic acid. Aliquots of plasma were transferred to a 96-well plate tubes and stored frozen (−70° C.) prior to bioanalysis.
Plasma concentrations of Compound I were determined by LC/MS/MS. Plasma study samples were vortexed and placed in a 96-well plate. The samples were extracted with 200 μL of acetonitrile with an internal standard. The extract was centrifuged for 10 minutes at 2809 RPM and 50 μL supernatant was mixed with 200 μL 0.2% formic acid in water. Samples (10-15 μL) were injected on a ThermoFisher HyPURITY™ (C18 50×2.1 mm) column with a flow rate of 0.35 mL/min. Mobile phase A consisted of water: acetonitrile: formic acid (95:5:0.1, v:v:v) and Mobile phase B consisted of methanol: acetonitrile: formic acid (50:50:0.1, v:v:v) (dog). Mobile phase A consisted of 0.2% formic acid in water and mobile phase B consisted of 0.2% formic acid in acetonitrile (rat and monkey). Pharmacokinetic parameters of Compound I were determined by non-compartmental analysis (Model 201 and Model 200 for IV and PO administration, respectively) using Phoenix WinNonlin Version 6.3 (Certara, Sunnyvale, CA) and using individual plasma concentration time profiles from 3 animals per treatment group.
Plasma clearance was determined from the intravenous arm of the study, and represents the rate at which plasma is cleared of drug. It is equal to the dose divided by the area under the plasma concentration-time curve. In addition to plasma clearance, it is also essential for an orally administered drug to reach efficacious systemic levels following oral delivery. Oral bioavailability is a measurement of plasma exposures following oral administration relative to exposures following intravenous administration.

The target of data set [3] is T1, NEP. The data set can be described thus: Assay 4.1: NEP activity in human (cGMP), multiple-ascending dose study. The settings on record: healthy adult and elderly subjects, 10-200 mg once daily, Day 14, over 24 h. The format is in vivo. As for the experimental part:
(§1) The Phase 1 study was a double-blind, randomized placebo-controlled multiple ascending dose study in healthy male and female volunteers randomized in a 4:1 ratio. The study enrolled 50 healthy adult (19-55 years old) and elderly (65-80 years old) volunteers over multiple weeks for the ascending-dose portion, which included cohorts (n=10/cohort of 8 active and 2 placebo) administered (1) ascending doses of 50 mg, 100 mg, and 200 mg, (2) a dose of 10 mg studied in parallel with 200 mg for PK/PK, and (3) a dose of 100 mg for one elderly cohort. […] Additionally, renal elimination of Compound I was neglible after multiple dosing, e.g., <1% was observed on Day 1 and Day 14 for all subjects.
Part of the MAD clinical studies was to determine the mechanism/duration of action of Compound I after dosing in humans.

Data set [4] can be described thus: Assay 4: Phase 1 multiple-ascending dose study, renal elimination. Format: in vivo. The conditions noted are these: human, after multiple dosing, Day 1 and Day 14, all subjects. As for the experimental part: A Phase 1 multiple-ascending dose (MAD) clinical trial of Compound I′ (Form I) was conducted in order to further evaluate the safety, tolerability, pharmacokinetics of Compound I and its metabolite, pharmacodynamics of Compound I, food effect, absolute oral bioavailability and renal elimination of multiple ascending oral doses of Compound I′ in healthy adult and elderly subjects. As discussed below, the reported data confirms the results stemming from the SAD clinical trial.
as §1

T1 sequence (P08473 whole entry): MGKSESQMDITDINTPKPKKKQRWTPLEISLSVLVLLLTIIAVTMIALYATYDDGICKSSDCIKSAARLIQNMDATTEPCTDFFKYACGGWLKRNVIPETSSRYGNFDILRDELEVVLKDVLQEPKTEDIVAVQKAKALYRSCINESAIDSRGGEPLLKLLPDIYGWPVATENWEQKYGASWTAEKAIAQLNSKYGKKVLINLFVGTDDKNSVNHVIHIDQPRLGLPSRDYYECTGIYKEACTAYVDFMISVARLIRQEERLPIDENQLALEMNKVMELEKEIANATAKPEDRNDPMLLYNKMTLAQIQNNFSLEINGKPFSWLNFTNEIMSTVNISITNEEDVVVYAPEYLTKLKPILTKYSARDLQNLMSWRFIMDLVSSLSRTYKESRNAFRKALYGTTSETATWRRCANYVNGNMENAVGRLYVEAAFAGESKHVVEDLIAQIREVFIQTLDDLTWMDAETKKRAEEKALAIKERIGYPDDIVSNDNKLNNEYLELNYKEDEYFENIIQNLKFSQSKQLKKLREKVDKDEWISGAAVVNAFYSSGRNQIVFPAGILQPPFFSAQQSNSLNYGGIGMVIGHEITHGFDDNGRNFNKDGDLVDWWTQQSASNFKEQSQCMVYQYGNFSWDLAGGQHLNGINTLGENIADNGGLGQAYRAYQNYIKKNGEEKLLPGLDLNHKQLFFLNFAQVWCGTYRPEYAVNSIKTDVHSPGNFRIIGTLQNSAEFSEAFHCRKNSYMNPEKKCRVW

One may read the bioavailability as dose-corrected exposure relative to a reference, in per cent. For the molecule `CCOC[C@](C)(C[C@@H](Cc1ccc(-c2cc(Cl)ccc2F)cc1)NC(=O)c1cc(O)no1)C(=O)O` [Compound I, (2S,4R)-5-(5′-Chloro-2′-fluoro-[1,1′-biphenyl]-4-yl)-2-(ethoxymethyl)-4-(3-hydroxyisoxazole-5-carboxamido)-2-methylpentanoic Acid], in data set [1] (healthy subjects, after a single dose), the “time window of the highest cGMP levels” value was in the range of 8 to 12 h. The “dose levels at which plasma cGMP dose response shows near maximal effect” value in data set [1] (healthy subjects, single dose) is on record as at least 100 mg. Also, the “change in mean plasma cGMP from baseline” value in data set [1] (healthy subjects, single dose 50-600 mg, over 24 hours) is reported as “sustained increase in mean plasma cGMP over 24-hours”; in data set [3] it was “sustained increase in mean plasma cGMP over 24 h”. Moreover, the “cGMP in plasma and urine” value in data set [1] (human, SAD clinical trial, over 24h) was “sustained elevations of cGMP over 24h in both plasma and urine”. Further, the bioavailability in data set [2] (po, higher doses (30 and 100 mg/kg), three different formulations, data not shown, read-out: mean bioavailability) was 55 to 83%; in data set [2] (male, IV 1 mg/kg, PO 2 mg/kg, read-out: Oral Bioavailability Mean) it was 41.8%. Also, the AUC(0-t) in data set [2] (male, IV, 1 mg/kg) turned out to be 2290 ng·h/mL; in data set [2] (male, PO, 2 mg/kg) it was 1910 ng·h/mL. In addition, the “CLlast Mean” value turned out to be 6.33 mL/min/kg in data set [2] (IV, 1 mg/kg) and 21.8 mL/min/kg in data set [2] (PO, 2 mg/kg). Moreover, the renal elimination in data set [4] is given as under 1%.
